Measured values published in patent US10196401B2, “Spiro-lactam NMDA receptor modulators and uses thereof” (Aptinyx Inc., priority 2016, dated 2019).
Read-outs that look alike come from different tables or passages of the source.

Key:
[1] = biological target: NMDAR2B (Homo sapiens, UniProt Q13224); assay: Potentiation of [3H]MK-801 binding, NMDAR2B; parameters: species or system rat; details: for % 1 mM Glycine: relative to 1 mM glycine
[2] = Plasma stability, rat; assay type: in vitro ADME
Description: Microsomal and plasma stability of Compound A was investigated. The following table indicates the percent of Compound A remaining after 60 minutes.
Microsomal and plasma stability of Compound B was investigated. The following table indicates the percent of Compound B remaining after 60 minutes.

[3] = Bioavailability and CSF/brain/plasma distribution after PO dosing; assay type: in vivo, Sprague Dawley rats; details: for Kp / bioavailability: Sprague Dawley, rat, PO administration (Compound A 10 mg/kg); for bioavailability: plasma, read-out: Bioavailablity (% F); for oral bioavailability, in words / proportion able to get to the CSF and brain, in words: comparative statement, comparator not named
Description: The bioavailablity of Compound A was investigated following PO administration. CSF, brain and plasma samples were analyzed following dosing with compound A (10 mg/kg). The following table indicates the bioavailablity and CSF/plasma and brain/plasma ratios.
Sprague Dawley rats were dosed intravenously with 2 mg/kg of Compound A. A second group of Sprague Dawley rats was dosed per os with 10 mg/kg of compound A. Plasma samples were drawn over a 24 h period and analyzed for Compound A.
In another experiment, Sprague Dawley rats were dosed per os with 10 mg/kg of Compound A. Plasma, brain, and CSF samples were analyzed at various time points over a 24 hour period. […]

[4] = biological target: NMDAR2A (Homo sapiens, UniProt Q12879); assay: Potentiation of [3H]MK-801 binding, NMDAR2A; parameters: species or system rat; details: for Conclusion / % 1 mM Glycine: NMDAR2A binding profile; for % 1 mM Glycine: relative to 1 mM glycine; for potentiation of [3H]MK-801 binding, subtype preference in words: NR2A, FIG. 2 / FIG. 6
Chain of NMDAR2A (Q12879 23-1464, species assumed, other chains not shown): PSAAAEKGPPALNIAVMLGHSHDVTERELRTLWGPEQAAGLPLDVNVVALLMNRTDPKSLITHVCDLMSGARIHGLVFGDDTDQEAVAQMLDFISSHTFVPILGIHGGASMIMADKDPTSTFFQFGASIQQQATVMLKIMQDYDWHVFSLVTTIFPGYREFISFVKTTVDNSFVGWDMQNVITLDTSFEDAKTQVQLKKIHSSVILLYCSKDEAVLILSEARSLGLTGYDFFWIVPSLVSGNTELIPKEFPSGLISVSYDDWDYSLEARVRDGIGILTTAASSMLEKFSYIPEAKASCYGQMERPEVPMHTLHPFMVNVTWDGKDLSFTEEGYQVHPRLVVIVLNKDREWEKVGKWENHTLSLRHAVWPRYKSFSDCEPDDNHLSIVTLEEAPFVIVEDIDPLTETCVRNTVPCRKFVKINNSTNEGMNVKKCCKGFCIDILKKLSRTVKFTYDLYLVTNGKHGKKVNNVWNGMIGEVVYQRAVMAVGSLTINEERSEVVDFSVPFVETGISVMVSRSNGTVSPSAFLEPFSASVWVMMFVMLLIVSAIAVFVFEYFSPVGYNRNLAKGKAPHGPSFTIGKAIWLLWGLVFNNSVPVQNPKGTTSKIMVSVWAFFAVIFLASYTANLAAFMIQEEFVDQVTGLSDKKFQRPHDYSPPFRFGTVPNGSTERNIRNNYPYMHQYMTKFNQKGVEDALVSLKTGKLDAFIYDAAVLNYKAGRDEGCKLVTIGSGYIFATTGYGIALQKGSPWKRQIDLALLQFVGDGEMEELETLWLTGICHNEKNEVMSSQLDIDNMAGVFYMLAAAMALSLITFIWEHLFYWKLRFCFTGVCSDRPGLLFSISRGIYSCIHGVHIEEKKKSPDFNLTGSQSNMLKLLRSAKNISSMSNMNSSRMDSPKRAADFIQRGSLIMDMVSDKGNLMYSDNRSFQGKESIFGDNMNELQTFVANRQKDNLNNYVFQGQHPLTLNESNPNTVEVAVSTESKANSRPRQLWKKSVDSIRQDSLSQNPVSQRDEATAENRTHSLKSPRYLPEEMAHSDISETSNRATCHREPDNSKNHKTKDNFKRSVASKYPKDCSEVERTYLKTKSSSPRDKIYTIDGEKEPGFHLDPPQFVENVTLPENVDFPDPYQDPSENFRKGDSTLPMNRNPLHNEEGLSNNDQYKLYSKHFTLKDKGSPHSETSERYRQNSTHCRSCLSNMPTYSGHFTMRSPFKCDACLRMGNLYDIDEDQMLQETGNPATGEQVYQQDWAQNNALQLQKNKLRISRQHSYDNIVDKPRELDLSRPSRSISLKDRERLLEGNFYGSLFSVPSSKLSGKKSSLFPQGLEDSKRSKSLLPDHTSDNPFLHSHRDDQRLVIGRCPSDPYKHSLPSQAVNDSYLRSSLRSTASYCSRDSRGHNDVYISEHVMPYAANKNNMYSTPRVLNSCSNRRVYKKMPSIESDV
Description: (§1) Assays were conducted as described by Moskal et al., “GLYX-13: a monoclonal antibody-derived peptide that acts as an N-rnethyl-D-aspartate receptor modulator,” Neuropharmacology, 49, 1077-87, 2005. The potentiation of [^3H]MK-801 binding (5 nrM; 22.5 Ci/mmol) to well washed rat cortical membranes (200 μg) was measured under non-equilibrium conditions (15 min @ 25° C.) in the presence of increasing concentrations of Compound A.
(§2) Assays were conducted as described above in Example 5, by Moskal et al. (2005).

[5] = tested on: SD rats; assay: Novelty-induced hypophagia (NIH) test; assay type: in vivo, rat; details: 1 h before a single 10-min test session
Source text: This Example relates to the assessment of the anxiolytic effect of treatment in the stress-induced anxiety model, novelty induced hypophagia. This assay is also sensitive to the rapid acting antidepressants ketamine and GLYX-13 (Li et al., “mTOR-dependent synapse formation underlies the rapid antidepressant effects of NMDA antagonists,” Science 329:959-964, 2010; and Burgdorf et al., 2013). See also Bodnoff et al., “A comparison of the effects of diazepam versus several typical and atypical anti-depressant drugs in an animal model of anxiety,” Psychopharmacology, 97:277-279, 1989.
Testing was conducted as described by (Burgdorf et al., 2013). […] Animals were food deprived overnight before testing, and lab chow was placed in the center chamber of an open field (40×40×20 cm) for 10 min under dim red lighting. Between testing each animal, feces and urine were removed from the apparatus. After NIHI testing, the latency to eat in the animal's home cage was determined as a control to ensure the effect on eating is specific to the novel environment. Animals were videotaped, and latency (sec) for the animal to take the first bite of food was manually scored offline.
A single point per dose group that was 2 or more standard deviations from the mean was considered an outlier and was excluded from the data analysis. […]

[6] = biological target: NMDAR2C (Homo sapiens, UniProt Q14957); assay: Potentiation of [3H]MK-801 binding, NMDAR2C; parameters: species or system rat; details: for % 1 mM Glycine: relative to 1 mM glycine
Chain of NMDAR2C (Q14957 20-1233, species assumed, other chains not shown): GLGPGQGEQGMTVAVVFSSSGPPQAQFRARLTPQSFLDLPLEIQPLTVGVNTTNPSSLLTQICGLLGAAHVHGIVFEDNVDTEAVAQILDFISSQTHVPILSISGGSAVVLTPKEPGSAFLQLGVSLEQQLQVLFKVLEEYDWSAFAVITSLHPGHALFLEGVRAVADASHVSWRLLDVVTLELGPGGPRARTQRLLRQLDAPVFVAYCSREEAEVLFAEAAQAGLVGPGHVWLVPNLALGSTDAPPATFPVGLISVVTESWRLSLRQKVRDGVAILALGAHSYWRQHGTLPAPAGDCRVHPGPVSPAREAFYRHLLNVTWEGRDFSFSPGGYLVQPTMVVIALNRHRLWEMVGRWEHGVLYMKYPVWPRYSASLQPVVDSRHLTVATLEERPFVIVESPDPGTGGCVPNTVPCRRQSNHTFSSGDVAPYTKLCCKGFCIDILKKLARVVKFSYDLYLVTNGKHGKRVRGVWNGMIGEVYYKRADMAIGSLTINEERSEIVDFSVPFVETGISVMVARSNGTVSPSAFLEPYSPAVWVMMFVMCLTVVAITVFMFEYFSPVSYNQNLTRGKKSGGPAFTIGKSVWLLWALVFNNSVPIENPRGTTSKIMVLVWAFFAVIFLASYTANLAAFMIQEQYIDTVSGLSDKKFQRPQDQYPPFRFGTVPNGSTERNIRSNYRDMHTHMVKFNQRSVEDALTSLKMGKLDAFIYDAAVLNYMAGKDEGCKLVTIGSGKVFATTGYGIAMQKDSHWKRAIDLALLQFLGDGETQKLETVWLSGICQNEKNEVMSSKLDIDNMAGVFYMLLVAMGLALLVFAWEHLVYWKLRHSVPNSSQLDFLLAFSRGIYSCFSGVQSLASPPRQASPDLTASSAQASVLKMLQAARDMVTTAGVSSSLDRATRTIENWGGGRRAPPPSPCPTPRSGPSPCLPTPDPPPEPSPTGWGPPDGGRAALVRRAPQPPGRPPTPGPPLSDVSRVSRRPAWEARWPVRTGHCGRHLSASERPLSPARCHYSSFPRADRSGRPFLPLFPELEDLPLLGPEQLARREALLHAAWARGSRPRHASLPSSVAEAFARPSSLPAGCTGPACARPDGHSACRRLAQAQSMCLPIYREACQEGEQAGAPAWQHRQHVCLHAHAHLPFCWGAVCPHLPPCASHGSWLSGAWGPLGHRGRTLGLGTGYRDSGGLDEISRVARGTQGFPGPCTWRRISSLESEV

[7] = tested on: Sprague Dawley rats; assay: Bennett model of mechanical analgesia (paw withdrawal threshold); assay type: in vivo, rat; details: single dose of 10 mg/kg PO; 1 hr, 24 hrs and 1 week post-dosing
Description: Bennett G J, Xie Y K, “A peripheral mononeuropathy in rat that produces disorders of pain sensation like those seen in man,” Pain 33:87-107, 1988. […] Vehicle animals receive the surgery and then receive vehicle rather than test compound. Animals were tested 1 hr, 24 h and 1 wk post-test compound or vehicle administration.
Male 2-3 month old Sprague Dawley rats were used. Harlan was the supplier for all studies. Rats were housed in Lucite cages with aspen wood chip bedding, maintained on a 12:12 light:dark cycle (lights on at 5 AM), and given ad libitum access to Purina lab chow (USA) and tap water throughout the study.
Rats were anesthetized using inhaled isoflurane (2.5%). Spared nerve injury surgery was performed as previously described (Bennett and Xie, 1988). An incision (˜1.5 cm in length) was made with a scalpel blade dorsally through skin on the right hindlimb, parallel and posterior to femur. Using a small pointed hemostat, the biceps femoris and gluteus superficialis muscles were separated. Using curved blunt forceps, the common sciatic nerve was isolated and exposed. For the mechanical analgesia studies, the whole sciatic nerve was ligated. Using hemostats/forceps and chromic gut (5-0), the nerve was loosely ligated with a square knot; 3 ligatures, 1 mm apart were placed on the nerve. […] For the thermal analgesia studies, the common peroneal and tibial branches of the sciatic nerve were ligated and cut, and the sural branch was spared. See Decosterd I, Woolf C J, “Spared nerve injury: an animal model of persistent peripheral neuropathic pain,” Pain 87:149-158, 2000. Testing occurred 1-2 weeks post-surgery.
During testing, rats were acclimated to the surface of a suspended wire mesh grid (1 cm×1 cm, with the wire being 0.3 cm in diameter) for 15-20 min. Starting from the smallest, each Von Frey filament was pressed perpendicularly to the plantar surface of the affected (ipsilateral) hindpaw until slightly bent and then held for 6 second. […]

[8] = Plasma protein binding, human; assay type: in vitro ADME; details: read-out: plasma protein binding (% bound) (converted)
Description: Unbound drug concentration in the brain was also investigated, and plasma protein binding assays were conducted. The following table (% bound) indicates results for Compound A.
Unbound drug concentration in the brain was also investigated, and plasma protein binding assays were conducted. The following table (% bound) indicates results for Compound B.

[9] = biological target: NMDAR2D (Homo sapiens, UniProt O15399); assay: Potentiation of [3H]MK-801 binding, NMDAR2D; parameters: species or system rat; details: for Conclusion / % 1 mM Glycine: NMDAR2D binding profile; for % 1 mM Glycine: relative to 1 mM glycine; for potentiation of [3H]MK-801 binding, subtype preference in words: NR2D, FIG. 2 / FIG. 6
Description: as §1, §2

[10] = CSF/plasma, read-out: CSF/plasma ratio
[11] = brain/plasma, read-out: Brain/plasma ratio

Chain of NMDAR2B (Q13224 27-1484, species assumed, other chains not shown): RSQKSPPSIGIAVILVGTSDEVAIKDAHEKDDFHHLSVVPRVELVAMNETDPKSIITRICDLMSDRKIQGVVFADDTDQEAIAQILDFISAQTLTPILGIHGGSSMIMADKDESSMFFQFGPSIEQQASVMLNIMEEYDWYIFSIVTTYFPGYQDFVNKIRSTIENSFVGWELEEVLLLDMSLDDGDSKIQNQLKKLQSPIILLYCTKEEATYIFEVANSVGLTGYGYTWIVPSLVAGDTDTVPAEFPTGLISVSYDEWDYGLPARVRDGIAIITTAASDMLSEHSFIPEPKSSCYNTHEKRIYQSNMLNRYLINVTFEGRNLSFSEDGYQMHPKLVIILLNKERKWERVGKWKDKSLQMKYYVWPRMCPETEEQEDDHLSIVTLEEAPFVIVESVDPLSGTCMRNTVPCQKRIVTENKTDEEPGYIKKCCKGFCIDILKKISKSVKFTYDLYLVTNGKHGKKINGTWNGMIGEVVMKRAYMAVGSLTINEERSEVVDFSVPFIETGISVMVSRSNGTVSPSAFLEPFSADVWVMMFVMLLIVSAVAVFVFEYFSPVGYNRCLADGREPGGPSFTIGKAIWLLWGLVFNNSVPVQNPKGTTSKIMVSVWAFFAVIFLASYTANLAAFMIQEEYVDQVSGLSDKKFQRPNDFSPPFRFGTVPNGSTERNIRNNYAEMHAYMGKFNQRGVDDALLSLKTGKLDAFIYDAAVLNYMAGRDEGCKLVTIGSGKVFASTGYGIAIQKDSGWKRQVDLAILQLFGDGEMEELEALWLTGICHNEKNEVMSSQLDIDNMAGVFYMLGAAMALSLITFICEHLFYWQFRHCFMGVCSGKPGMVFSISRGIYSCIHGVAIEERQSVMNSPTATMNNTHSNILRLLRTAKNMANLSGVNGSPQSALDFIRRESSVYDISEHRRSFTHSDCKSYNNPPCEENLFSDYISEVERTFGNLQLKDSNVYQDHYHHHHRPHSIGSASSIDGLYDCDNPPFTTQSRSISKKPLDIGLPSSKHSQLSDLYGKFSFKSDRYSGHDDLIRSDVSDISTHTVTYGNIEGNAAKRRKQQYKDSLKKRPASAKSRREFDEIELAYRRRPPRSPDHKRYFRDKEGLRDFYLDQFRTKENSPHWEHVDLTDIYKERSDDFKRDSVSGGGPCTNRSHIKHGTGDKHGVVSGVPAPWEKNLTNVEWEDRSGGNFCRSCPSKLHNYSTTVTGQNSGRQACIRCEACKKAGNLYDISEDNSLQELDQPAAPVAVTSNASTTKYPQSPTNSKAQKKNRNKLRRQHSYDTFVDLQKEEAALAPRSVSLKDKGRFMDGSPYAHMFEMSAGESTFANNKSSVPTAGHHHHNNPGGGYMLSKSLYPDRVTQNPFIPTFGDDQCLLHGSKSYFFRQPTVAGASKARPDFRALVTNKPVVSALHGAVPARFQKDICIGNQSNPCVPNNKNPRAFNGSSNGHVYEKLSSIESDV

Row | Structure (SMILES) | Conclusion ([1]; NMDAR2B binding profile) | % 1 mM Glycine ([1]; NMDAR2B binding profile) [%] | Plasma stability, percent remaining after 60 minutes [2] [%] | Kp [3, 10] | Kp [3, 11] | bioavailability [3] [%] | oral bioavailability, in words [3] | proportion able to get to the CSF and brain, in words [3] | Conclusion [4] | % 1 mM Glycine [4] [%] | potentiation of [3H]MK-801 binding, subtype preference in words [4] | Conclusion ([6]; NMDAR2C binding profile) | % 1 mM Glycine ([6]; NMDAR2C binding profile) [%] | mechanical analgesic effect in the Bennett model [7] | fraction unbound [8] | Conclusion [9] | % 1 mM Glycine [9] [%] | potentiation of [3H]MK-801 binding, subtype preference in words [9] | other results
1 | CC(C)CN1CCC[C@]12CN([C@H](C(N)=O)[C@@H](C)O)C2=O [Compound A, (2S,3R)-3-hydroxy-2-((R)-5-isobutyl-1-oxo-2,5-diazaspiro[3.4]octan-2-yl)butanamide] | WT2B agonist | 68.22 | 92 | 0.65 | 0.19 | 42 | lower oral bioavailability | a higher proportion is able to get to the CSF and brain | WT2A agonist | 47.42 | highly NR2A preferring | WT2C agonist | 66.21 | produced a mechanical analgesic effect | 0.741 | WT2D no | 0 | no binding to NR2D | EC50 ([1]; NMDAR2B binding profile, wild-type): 3.09 nM; latency to eat in the NIH test (anxiolytic effect) ([5]; 10-1000 μg/kg PO): produces an anxiolytic effect; EC50 ([6]; NMDAR2C binding profile, wild-type): 1.51 nM
2 | CC(C)CN1CCC[C@@]12CN([C@H](C(N)=O)[C@@H](C)O)C2=O [Compound B, (2S,3R)-3-hydroxy-2-((S)-5-isobutyl-1-oxo-2,5-diazaspiro[3.4]octan-2-yl)butanamide] | WT2B agonist | 49.02 | 89 | 0.7 | 0.18 | 38 | lower oral bioavailability | a higher proportion is able to get to the CSF and brain | WT2A agonist | 24.48 | lower potency in NR2A and NR2C | WT2C agonist | 85.37 | produced a mechanical analgesic effect | 0.712 | agonist | 66.21 | highly NR2B and NR2D preferring | potentiation of [3H]MK-801 binding, subtype preference in words ([1]; NR2B, FIG. 6): highly NR2B and NR2D preferring; latency to eat in the NIH test (anxiolytic effect) ([5]; 0.0001-1 μg/kg PO): produces an anxiolytic effect; potentiation of [3H]MK-801 binding, subtype preference in words ([6]; NR2C, FIG. 6): lower potency in NR2A and NR2C
